According to PubChem BioAssay AID212 (DTP/NCI, 2004):
Values joined by “and” are separate entries in the source; they are usually repeats but may differ in a detail not shown here. Identical values can stand only once. Results filed as inconclusive are left out.

Tested on: BDF1 mice, colon carcinoma 38 sc, T/C %
Experiment: NCI In Vivo Anticancer Drug Screen. Data for tumor model Colon Carcinoma 38 (subcutaneous) in B6D2F1 (BDF1) mice
Conditions: endpoint: median tumor weight (est.), higher = larger tumour
Outline: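 Transplantable tumor in mice; compound-treated vs vehicle-dosed controls. Measured survival or tumor size; value = T ÷ C.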

[1] = dose: 50.0 mg/kg/injection, schedule: Q07DX003 (ip), vehicle: saline
[2] = dose: 200.0 mg/kg/injection, schedule: Q07DX003 (ip), vehicle: saline
[3] = dose: 400.0 mg/kg/injection, schedule: Q07DX003 (ip), vehicle: saline
[4] = dose: 6.25 mg/kg/injection, schedule: Q07DX002 (ip), vehicle: Klucel (hydroxypropylcellulose) (HPC)
[5] = dose: 12.5 mg/kg/injection, schedule: Q07DX002 (ip), vehicle: Klucel (hydroxypropylcellulose) (HPC)
[6] = dose: 25.0 mg/kg/injection, schedule: Q07DX002 (ip), vehicle: Klucel (hydroxypropylcellulose) (HPC)
[7] = dose: 50.0 mg/kg/injection, schedule: Q07DX002 (ip), vehicle: Klucel (hydroxypropylcellulose) (HPC)
[8] = dose: 100.0 mg/kg/injection, schedule: Q07DX002 (ip), vehicle: Klucel (hydroxypropylcellulose) (HPC)
[9] = dose: 200.0 mg/kg/injection, schedule: Q07DX002 (ip), vehicle: Klucel (hydroxypropylcellulose) (HPC)
[10] = dose: 400.0 mg/kg/injection, schedule: Q07DX002 (ip), vehicle: Klucel (hydroxypropylcellulose) (HPC)
[11] = dose: 12.5 mg/kg/injection, schedule: Q07DX002 (ip), vehicle: saline with Tween-80
[12] = dose: 25.0 mg/kg/injection, schedule: Q07DX002 (ip), vehicle: saline with Tween-80
[13] = dose: 50.0 mg/kg/injection, schedule: Q07DX002 (ip), vehicle: saline with Tween-80
[14] = dose: 100.0 mg/kg/injection, schedule: Q07DX002 (ip), vehicle: saline with Tween-80
[15] = dose: 200.0 mg/kg/injection, schedule: Q07DX002 (ip), vehicle: saline with Tween-80
[16] = dose: 3.12 mg/kg/injection, schedule: Q07DX002 (ip), vehicle: saline
[17] = dose: 6.25 mg/kg/injection, schedule: Q07DX002 (ip), vehicle: saline
[18] = dose: 12.5 mg/kg/injection, schedule: Q07DX002 (ip), vehicle: saline
[19] = dose: 25.0 mg/kg/injection, schedule: Q07DX002 (ip), vehicle: saline
[20] = dose: 100.0 mg/kg/injection, schedule: Q07DX002 (ip), vehicle: saline
[21] = dose: 50.0 mg/kg/injection, schedule: Q07DX002 (ip), vehicle: saline

O=C(O)CC(NC(=O)CP(=O)(O)O)C(=O)O (stereo not drawn)
T/C [1]: 95 % of control | T/C (dose: 51.8 mg/kg/injection, schedule: Q01DX004 (ip), vehicle: saline): 102 % of control | T/C (dose: 86.4 mg/kg/injection, schedule: Q01DX004 (ip), vehicle: saline): 75 % of control | T/C (dose: 119.0 mg/kg/injection, schedule: Q01DX009 (ip), vehicle: saline): 34 % of control | T/C (dose: 144.0 mg/kg/injection, schedule: Q01DX004 (ip), vehicle: saline): 12 % of control | T/C (dose: 178.0 mg/kg/injection, schedule: Q01DX009 (ip), vehicle: saline): 12 % of control | T/C (dose: 180.0 mg/kg/injection, schedule: Q04DX004 (ip), vehicle: saline): 79 % of control | T/C [2]: 115 % of control | T/C (dose: 240.0 mg/kg/injection, schedule: Q01DX004 (ip), vehicle: saline): 9 % of control | T/C (dose: 300.0 mg/kg/injection, schedule: Q04DX004 (ip), vehicle: saline): 75 % of control | T/C (dose: 370.0 mg/kg/injection, schedule: Q07DX003 (ip), vehicle: saline): 70 % of control | T/C [3]: 75 % of control | T/C (dose: 500.0 mg/kg/injection, schedule: Q04DX004 (ip), vehicle: saline): 58 % of control | T/C (dose: 552.0 mg/kg/injection, schedule: Q07DX003 (ip), vehicle: saline): 40 % of control | T/C (dose: 800.0 mg/kg/injection, schedule: Q07DX003 (ip), vehicle: saline): 21 % of control

C[N+](C)(C)c1cc2c(nn1)Nc1ccccc1S2
T/C [4]: 109 % of control | T/C [5]: 122 % of control | T/C [6]: 89 % of control and 90 % of control | T/C [7]: 97 % of control | T/C [8]: 89 % of control

CN(C)c1ccc2c(SCC(=O)OCC(=O)[C@@]3(O)CC[C@H]4[C@@H]5CCC6=CC(=O)C=C[C@]6(C)[C@H]5C(=O)C[C@@]43C)c3ccc(N(C)C)cc3nc2c1
T/C [7]: 82 % of control | T/C [8]: 69 % of control | T/C [9]: 56 % of control | T/C [10]: 77 % of control | T/C (dose: 800.0 mg/kg/injection, schedule: Q07DX002 (ip), vehicle: Klucel (hydroxypropylcellulose) (HPC)): 62 % of control

CC(=O)Nc1ccc(S(=O)(=O)CO)cc1
T/C [11]: 116 % of control and 97 % of control | T/C [12]: 84 % of control and 107 % of control | T/C [13]: 89 % of control | T/C [14]: 88 % of control and 91 % of control | T/C [15]: 89 % of control and 97 % of control

NC(=O)c1ccc[n+](Cc2c(Cl)cccc2Cl)c1
T/C [16]: 83 % of control and 94 % of control | T/C [17]: 68 % of control | T/C [18]: 97 % of control | T/C [19]: 116 % of control and 94 % of control | T/C [20]: 85 % of control and 90 % of control

C=C(C)C(=O)O[C@H]1CC2=C[C@@H](C[C@@]3(C)O[C@@H]3[C@H]3OC(=O)C(=C)[C@@H]31)OC2=O
T/C (dose: 3.12 mg/kg/injection, schedule: Q07DX002 (ip), vehicle: Klucel (hydroxypropylcellulose) (HPC)): 93 % of control | T/C [4]: 112 % of control and 105 % of control | T/C [5]: 93 % of control | T/C [6]: 90 % of control and 102 % of control | T/C [7]: 113 % of control and 100 % of control

OC(CCl)CN1CC[N+]2(CC1)CC[N+]1(CCN(CC(O)CCl)CC1)CC2 (stereo not drawn)
T/C [18]: 73 % of control | T/C (dose: 12.5 mg/kg/injection, schedule: Q07DX003 (ip), vehicle: saline): 90 % of control | T/C [19]: 124 % of control | T/C (dose: 25.0 mg/kg/injection, schedule: Q07DX003 (ip), vehicle: saline): 91 % of control | T/C [21]: 90 % of control and 99 % of control | T/C [1]: 76 % of control | T/C [20]: 60 % of control | T/C (dose: 100.0 mg/kg/injection, schedule: Q07DX003 (ip), vehicle: saline): 57 % of control | T/C [2]: 54 % of control | T/C [3]: 44 % of control | T/C (dose: 800.0 mg/kg/injection, schedule: Q07DX002 (ip), vehicle: saline): 30 % of control

Cc1c2ccc3ccccc3c2c[n+]2ccccc12
T/C (dose: 5.0 mg/kg/injection, schedule: Q07DX002 (ip), vehicle: Klucel (hydroxypropylcellulose) (HPC)): 111 % of control and 87 % of control | T/C (dose: 10.0 mg/kg/injection, schedule: Q07DX002 (ip), vehicle: Klucel (hydroxypropylcellulose) (HPC)): 77 % of control | T/C (dose: 40.0 mg/kg/injection, schedule: Q07DX002 (ip), vehicle: Klucel (hydroxypropylcellulose) (HPC)): 89 % of control

O=C1NC(=O)/C(=C/C=C/c2ccccc2)S1
T/C (dose: 1.81 mg/kg/injection, schedule: Q07DX002 (ip), vehicle: saline with Tween-80): 70 % of control | T/C (dose: 3.62 mg/kg/injection, schedule: Q07DX002 (ip), vehicle: saline with Tween-80): 198 % of control | T/C (dose: 7.25 mg/kg/injection, schedule: Q07DX002 (ip), vehicle: saline with Tween-80): 84 % of control | T/C [11]: 117 % of control and 100 % of control | T/C (dose: 14.5 mg/kg/injection, schedule: Q07DX002 (ip), vehicle: saline with Tween-80): 85 % of control | T/C [12]: 65 % of control and 80 % of control | T/C (dose: 29.0 mg/kg/injection, schedule: Q07DX002 (ip), vehicle: saline with Tween-80): 69 % of control | T/C (dose: 58.0 mg/kg/injection, schedule: Q07DX002 (ip), vehicle: saline with Tween-80): 78 % of control | T/C [14]: 175 % of control

CCCCC(=O)OCC(=O)[C@]1(O)Cc2c(O)c3c(c(O)c2[C@@H](OC2CC(NC(=O)C(F)(F)F)C(O)C(C)O2)C1)C(=O)c1c(OC)cccc1C3=O (stereo partly drawn)
T/C (dose: 25.0 mg/kg/injection, schedule: Q07DX002 (ip), vehicle: water): 168 % of control | T/C (dose: 100.0 mg/kg/injection, schedule: Q07DX002 (ip), vehicle: water): 89 % of control | T/C (dose: 200.0 mg/kg/injection, schedule: Q07DX002 (ip), vehicle: water): 106 % of control | T/C (dose: 400.0 mg/kg/injection, schedule: Q07DX002 (ip), vehicle: water): 71 % of control | T/C (dose: 800.0 mg/kg/injection, schedule: Q07DX002 (ip), vehicle: water): 45 % of control

c1ccc2c(c1)-c1ccccc1C1NC21 (stereo not drawn)
T/C (dose: 12.0 mg/kg/injection, schedule: Q07DX002 (ip), vehicle: saline with Tween-80): 104 % of control | T/C [12]: 117 % of control | T/C [13]: 93 % of control

CC1(C)CC2(C)OC2C2(C1)N=NC(=Nc1ccccc1)O2 (stereo not drawn)
T/C [13]: 119 % of control | T/C [14]: 101 % of control | T/C [15]: 213 % of control

COc1cc(O)c2c(O)c3c(c4c2c1[C@]1(C4)C(C)=CCCC1(C)C)[C@H](O)[C@@]1(O)CC(=O)C(C(N)=O)=C(O)[C@@]1(O)C3=O
T/C (dose: 6.25 mg/kg/injection, schedule: Q07DX002 (ip), vehicle: saline with Tween-80): 92 % of control and 97 % of control | T/C [12]: 87 % of control and 101 % of control

COc1ccc(C(=O)/C(Br)=C/C(=O)O)cc1
T/C (dose: 4.0 mg/kg/injection, schedule: Q07DX002 (ip), vehicle: saline): 104 % of control | T/C (dose: 8.0 mg/kg/injection, schedule: Q07DX002 (ip), vehicle: saline): 98 % of control | T/C (dose: 16.0 mg/kg/injection, schedule: Q07DX002 (ip), vehicle: saline): 104 % of control | T/C (dose: 32.0 mg/kg/injection, schedule: Q07DX002 (ip), vehicle: saline): 71 % of control

OCCN1CCN(CCCN2c3ccccc3Sc3ccc(C(F)(F)F)cc32)CC1
T/C [16]: 115 % of control | T/C [17]: 91 % of control | T/C [18]: 61 % of control | T/C [19]: 67 % of control | T/C [21]: 56 % of control

Cc1cc(=O)c2cccc(CC(=O)O)c2o1
T/C [8]: 119 % of control | T/C [9]: 114 % of control | T/C [10]: 76 % of control
